This note sets out measurements from patent US10570152B2, “Antibacterial therapeutics and prophylactics” (VYOME BIOSCIENCES PVT. LTD., priority 2015, dated 2020).

Assay [1] has as its system S. epidermidis S5-2. Kind of assay: Sequential ZIB (zone of inhibition) assay for PMMA beads. The class given is cell-based, Staphylococcus epidermidis. To be noted: SmartSet HV impregnated beads. The method, then: S. epidermidis S5-2 cells were grown in Brain Heart Infusion Agar (BHIA) at 37° C. for 24 h. 100 μl of 0.5 McFarland equal bacterial suspension was spread on BHA plates. Drug loaded beads were placed above these plates. Plates were incubated at 37° C. for 24 h. Next day, zone of inhibition (ZOI) the beads were measured following which the beads were placed on fresh BHA plates with bacterial suspension spread and this experiment was continued up to seven days. The drug release pattern was determined by compiling and analyzing the ZOI data of beads on each ZOI cycle up to seven days.

Assay [2] concerns S. epidermidis ATCC 35984 biofilm. Kind of assay: Biofilm disruption assay (MTT) with compounds and compound loaded beads. The class given is cell-based. The note with it: Staphylococcus epidermidis, ATCC35984, read-out: Concentration of compounds (mg/ml) for 50% biofilm disruption. The method, then:
S. epidermidis ATCC 35984 was grown in Brain Heart Infusion Agar (BHIA) at 37° C. for 24 h. The loop full of bacterial culture was suspended in sterile water and matched the turbidity against 0.5 McFarland Standard (approximately 1.5×10^8), 100 μl of culture suspension was added into each well of the 96 well plate and plates were incubated at 37° C. for 48 h for biofilm formation. The biofilm formed in each well was washed twice with sterile water to remove the planktonic cells. Then biofilm was treated with 100 yl of BHI broth suspended with various concentrations of DART molecules, followed by incubation of the plates at 37° C. for 24 h. Subsequently the biofilm in the wells were stained with MTT reagent and the plates were incubated at 37° C. for 2 h. The precipitate formed in the wells was dissolved in 100 μl of dimethyl sulfoxide (DMSO) and the absorbance was measured at 600 nm in multi well plate reader to determine the minimum biofilm inhibitory concentration (MBIC). The MBIC was calculated by subtracting the absorbance value of each drug treated sample from that of 48 h growth control.

Assay [3] deals with Gram negative pathogens. The assay can be described thus: MIC interpretations, Gram negative pathogens. The class given is cell-based. The note with it: most of the Gram negative pathogens. The method, then: MIC of DART molecules were determined by micro broth dilution as per CLSI guidelines. Bacterial strains were cultured in Brain Heart Infusion Agar (BHIA) at 37° C. for 24 h. For MIC determination, BHI broth (100 μl) was added to each of the wells of a 96 well plate. 100 μl of broth containing drug was added to the first well (1A to 1H) and thereafter serial (double) dilutions were carried out for up to 10 wells (column 1 to column 10 of the 96 well plate). Bacterial inoculum was prepared by adjusting the bacterial culture turbidity to 0.5 McFarland standard (approximately 1.5×10^8 cells/ml) and further diluted (100 times with sterile BHI broth). Diluted bacterial suspension (100 μl) was added to each well except sterility control wells (column 12 of 96 well plate). The plates were incubated at 37° C. for 24 h. The MIC of the test compound was measured after addition of Alamar blue dye.

Values after ≈ are worked out from the molar mass of the structure shown.

As for `Cc1ncc([N+](=O)[O-])n1CCN1CCN(c2cc3c(cc2F)c(=O)c(C(=O)O)c2n3C(C)S2)CC1` (stereo not drawn) [Compound 2, 6-Fluoro-1-methyl-7-(4-(2-(2-methyl-5-nitro-1H-imidazol-1-yl)ethyl)piperazin-1-yl)-4-oxo-1H,4H-[1,3]thiazeto[3,2-a]quinoline-3-carboxylic acid], the “Sequential ZOI” value in assay [1] (Day-1) turned out to be 2.2 cm; in assay [1] (Day-2) it was 2.1 cm; in assay [1] (Day-3), 1.6 cm; in assay [1] (Day-4) it was 0.8 cm; in assay [1] (Day-5), 1.6 cm; in assay [1] (Day-6), 1.8 cm. In addition, the “Sequential ZOI” value in assay [1] (Day-7) came out at 1.4 cm. Besides, the EC50 in assay [2] was in the range of 0.5 to 1 mg/mL (≈ 995 to 1990 µM). Also, in assay [3], the “activity (MIC) range” value lay in the range of 4 to 8 µg/mL.
